Assay results: patent US10392404B2, “Compounds and compositions as kinase inhibitors” (NOVARTIS AG, priority 2014, dated 2019)

Legend:
b-Raf (V600E) = biological target: T1, b-Raf (V600E) (Homo sapiens, UniProt P15056, V600E); assay: In vitro Raf activity determination (Alpha Screen, biotinylated kinase-dead MEK1 substrate), B-Raf; type: biochemical; conditions: b-Raf (V600E) approximately 4 pM; ATP 10 μM; pre-incubation 60 minutes; reaction 3 hours at room temperature
T1 construct: made in house
Procedure, shortened: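 Activated b-Raf(V600E) (~4 pM) pre-incubated 60 min with compound and biotinylated kinase-dead (K97R) MEK1 (~10 nM), then reacted 3 h at room temperature with 10 μM ATP in 50 mM Tris pH 7.5, 15 mM MgCl2, 0.01% BSA, 1 mM DTT. Phospho-MEK detected by AlphaScreen; IC50 by non-linear regression.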

C-RAF = biological target: T2, C-RAF (Homo sapiens, UniProt P04049, Y340E/Y341E); assay: In vitro Raf activity determination (Alpha Screen, biotinylated kinase-dead MEK1 substrate), C-Raf; type: biochemical; conditions: c-Raf approximately 4 nM; ATP 1 μM; pre-incubation 60 minutes; reaction 1 hour at room temperature
T2 construct: His tag (implied by nickel chromatography) (cleaved yes); StrepII tag (cleaved yes); made in house; host or cells: Sf9 insect cells (baculovirus), CRAF and h14-3-3 zeta co-expressed; MEK1 substrate from E. coli
Procedure, shortened: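 Full-length C-Raf carrying Y340E/Y341E, co-expressed with 14-3-3ζ in Sf9 cells, at approximately 4 nM, with approximately 10 nM biotinylated kinase-dead MEK1 (K97R) and 1 μM ATP, pH 7.5. Compound preincubated 60 min, reaction 1 hour at room temperature. Phospho-MEK read by AlphaScreen; IC50 by non-linear regression.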

T1 sequence (P15056 whole entry V600E): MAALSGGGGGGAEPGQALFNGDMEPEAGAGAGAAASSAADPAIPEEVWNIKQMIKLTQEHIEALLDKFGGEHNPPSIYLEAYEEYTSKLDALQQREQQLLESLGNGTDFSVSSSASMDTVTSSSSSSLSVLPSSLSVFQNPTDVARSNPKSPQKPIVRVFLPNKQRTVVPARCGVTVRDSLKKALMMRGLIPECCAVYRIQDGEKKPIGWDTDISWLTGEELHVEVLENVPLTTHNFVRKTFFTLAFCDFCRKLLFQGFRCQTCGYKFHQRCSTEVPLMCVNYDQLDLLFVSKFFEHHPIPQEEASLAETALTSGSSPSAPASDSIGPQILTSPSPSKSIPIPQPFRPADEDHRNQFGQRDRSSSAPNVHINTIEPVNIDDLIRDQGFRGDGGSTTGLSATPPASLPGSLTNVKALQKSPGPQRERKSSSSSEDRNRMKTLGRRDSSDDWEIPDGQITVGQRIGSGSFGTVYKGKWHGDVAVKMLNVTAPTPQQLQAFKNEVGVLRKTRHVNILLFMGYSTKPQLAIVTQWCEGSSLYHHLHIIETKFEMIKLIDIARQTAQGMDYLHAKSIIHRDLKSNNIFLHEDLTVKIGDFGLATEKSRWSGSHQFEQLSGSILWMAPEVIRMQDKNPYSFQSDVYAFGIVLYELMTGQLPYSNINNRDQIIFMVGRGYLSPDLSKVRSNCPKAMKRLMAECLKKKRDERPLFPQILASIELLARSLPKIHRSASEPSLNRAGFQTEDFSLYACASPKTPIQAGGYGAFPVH
T2 sequence (P04049 whole entry Y340E/Y341E): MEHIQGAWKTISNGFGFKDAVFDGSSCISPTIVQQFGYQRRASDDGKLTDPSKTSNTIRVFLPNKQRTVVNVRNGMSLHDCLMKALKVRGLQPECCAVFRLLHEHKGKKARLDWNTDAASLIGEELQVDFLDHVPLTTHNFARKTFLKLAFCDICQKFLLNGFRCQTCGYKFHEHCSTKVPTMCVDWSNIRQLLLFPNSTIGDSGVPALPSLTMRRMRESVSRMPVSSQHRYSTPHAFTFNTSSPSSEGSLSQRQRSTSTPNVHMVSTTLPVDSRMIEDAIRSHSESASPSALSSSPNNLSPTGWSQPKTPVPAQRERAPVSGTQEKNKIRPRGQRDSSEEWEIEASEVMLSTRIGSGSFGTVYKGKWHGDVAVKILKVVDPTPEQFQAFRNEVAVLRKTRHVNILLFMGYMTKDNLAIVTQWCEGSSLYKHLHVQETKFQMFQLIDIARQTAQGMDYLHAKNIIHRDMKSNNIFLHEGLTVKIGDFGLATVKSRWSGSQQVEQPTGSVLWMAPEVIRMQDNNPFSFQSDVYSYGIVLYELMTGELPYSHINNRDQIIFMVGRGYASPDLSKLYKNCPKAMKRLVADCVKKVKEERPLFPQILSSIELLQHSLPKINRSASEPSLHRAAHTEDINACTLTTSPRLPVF
T2 sequence (P63104 whole entry partner): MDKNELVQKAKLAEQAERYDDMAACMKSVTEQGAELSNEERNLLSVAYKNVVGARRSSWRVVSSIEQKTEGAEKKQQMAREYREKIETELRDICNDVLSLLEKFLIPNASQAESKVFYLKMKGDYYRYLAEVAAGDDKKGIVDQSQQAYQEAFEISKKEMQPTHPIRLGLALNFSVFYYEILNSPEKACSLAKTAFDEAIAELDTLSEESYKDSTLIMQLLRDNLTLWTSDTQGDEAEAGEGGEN

| IC50 (b-Raf (V600E)) [nM] | IC50 (C-RAF) [nM] | SMILES |
| --- | --- | --- |
| 27.9 | 5.8 | Cc1ncc(NC(=O)c2cc(C(C)(C)O)ccn2)cc1-c1cnc(N2CC(C)(O)C2)c(C#N)c1 [Example 235, N-(5′-cyano-6′-(3-hydroxy-3-methylazetidin-1-yl)-2-methyl-[3,3′-bipyridin]-5-yl)-4-(2-hydroxypropan-2-yl)picolinamide] |
| 4.72 | 0.741 | Cc1ccc(NC(=O)c2cnnc(C(C)(C)C#N)c2)cc1-c1cnc(N2CC(C)(O)C2)c(C#N)c1 [Example 214, N-(3-(5-cyano-6-(3-hydroxy-3-methylazetidin-1-yl)pyridin-3-yl)-4-methylphenyl)-6-(2-cyanopropan-2-yl)pyridazine-4-carboxamide] |
| 18.4 | 2.16 | Cc1ncc(NC(=O)c2ccnc(C(C)(C)O)c2)cc1-c1cnc(N(C)C)c(C#N)c1 [Example 272, N-(5′-cyano-6′-(dimethylamino)-2-methyl-[3,3′-bipyridin]-5-yl)-2-(2-hydroxypropan-2-yl)isonicotinamide] |
| 4.18 | 0.925 | Cc1ncc(NC(=O)c2ccnc(C(F)F)c2)cc1-c1cnc(NC2CCOCC2)c(C#N)c1 [Example 171, N-(5′-cyano-2-methyl-6′-((tetrahydro-2H-pyran-4-yl)amino)-[3,3′-bipyridin]-5-yl)-2-(difluoromethyl) isonicotinamide] |
| 4.26 | 0.745 | Cc1ncc(NC(=O)c2ccnc(C3CC3)c2)cc1-c1cnc(C2CCOCC2)c(C#N)c1 [Example 131, N-(5′-cyano-2-methyl-6′-(tetrahydro-2H-pyran-4-yl)-[3,3′-bipyridin]-5-yl)-2-cyclopropyl-isonicotinamide] |
| 1.09 | 0.356 | Cc1ncc(NC(=O)c2cccc(C(F)F)c2)cc1-c1cnc(NC2CCOCC2)c(C#N)c1 [Example 172, N-(5′-cyano-2-methyl-6′-((tetrahydro-2H-pyran-4-yl)amino)-[3,3′-bipyridin]-5-yl)-3-(difluoromethyl) benzamide] |
| 2.62 | 0.384 | Cc1ncc(NC(=O)c2cc(C(C)(C)C#N)ccn2)cc1-c1cnc(N2CCOCC2)c(C#N)c1 [Example 230, N-(5′-cyano-2-methyl-6′-morpholino-[3,3′-bipyridin]-5-yl)-4-(2-cyanopropan-2-yl)picolinamide] |
| 0.35 | 0.0597 | Cc1ccc(NC(=O)c2ccnc(S(C)(=O)=O)c2)cc1-c1cnc(N2CCOCC2)c(C#N)c1 [Example 156, N-(3-(5-cyano-6-morpholinopyridin-3-yl)-4-methylphenyl)-2-(methylsulfonyl) isonicotinamide] |
| 3 | 0.796 | Cc1ncc(NC(=O)c2cc(C(F)(F)F)ccn2)cc1-c1cnc(NC2CCOCC2)c(C#N)c1 [Example 227, N-(5′-cyano-2-methyl-6′-((tetrahydro-2H-pyran-4-yl)amino)-[3,3′-bipyridin]-5-yl)-4-(trifluoromethyl) picolinamide] |
| 285 | 64 | Cc1ncc(NC(=O)c2ccnc(C(C)(C)C#N)c2)cc1-c1cnc(-n2ccccc2=O)c(C#N)c1 [Example 53, N-(3′-cyano-2″- methyl-2-oxo-2H-[1,2′:5′,3″- terpyridin]-5″-yl)-2 (2-cyanopropan-2-yl)isonicotinamide] |
| 1.33 | 0.262 | Cc1ncc(NC(=O)c2ccnc(C3(C#N)CC3)c2)cc1-c1cnc(N2CCOCC2)c(C#N)c1 [Example 146, N-(5′-cyano-2-methyl-6′-morpholino-[3,3′-bipyridin]-5-yl)-2-(1-cyanocyclopropyl) isonicotinamide] |
| 4.79 | 0.969 | CCn1cc(C(=O)Nc2cnc(C)c(-c3cnc(N4CCOCC4)c(C#N)c3)c2)cc(C(F)(F)F)c1=O [Example 135, N-(5′-cyano-2-methyl-6′-morpholino-[3,3′-bipyridin]-5-yl)-1-ethyl-6-oxo-5-(trifluoromethyl)-1,6-dihydropyridine-3-carboxamide] |
| 10.2 | 0.672 | Cc1ccc(NC(=O)c2ccnc(C(F)(F)F)c2)cc1-c1cc(C#N)c(N)nc1C [Example 42, N-(3-(6-amino-5-cyano-2-methylpyridin-3-yl)-4-methylphenyl)-2-(trifluoromethyl) isonicotinamide] |
| 23.7 | 4.89 | Cc1ccn(-c2ncc(-c3cc(NC(=O)c4ccnc(C(C)(C)C#N)c4)cnc3C)cc2C#N)n1 [Example 83, N-(5′-cyano-2-methyl-6′-(3-methyl-1H-pyrazol-1-yl)-[3,3′-bipyridin]-5-yl)-2-(2-cyanopropan-2-yl)isonicotinamide] |
| 74.3 | 9.21 | Cc1ncc(NC(=O)c2ccnc(C(C)(C)C#N)c2)cc1-c1cnc(OCCO)c(C#N)c1 [Example 98, N-(5′-cyano-6′-(2-hydroxyethoxy)-2-methyl-[3,3′-bipyridin]-5-yl)-2-(2-cyanopropan-2-yl)isonicotinamide] |
| 10.6 | 2.02 | Cc1ccc(NC(=O)c2cc(C(C)(C)N)cc(C(F)(F)F)c2)cc1-c1cnc(N2CC(C)(O)C2)c(C#N)c1 [Example 248, 3-(2-aminopropan-2-yl)-N-(3-(5-cyano-6-(3-hydroxy-3-methylazetidin-1-yl)pyridin-3-yl)-4-methylphenyl)-5-(trifluoromethyl) benzamide] |
| 3.41 | 0.39 | Cc1ncc(NC(=O)c2ccnc(C3(C#N)CC3)c2)cc1-c1cnc(N2CC(C)(O)C2)c(C#N)c1 [Example 189, N-(5′-cyano-6′-(3-hydroxy-3-methylazetidin-1-yl)-2-methyl-[3,3′-bipyridin]-5-yl)-2-(1-cyanocyclopropyl) isonicotinamide] |
| 10.5 | 2.11 | Cc1ccc(NC(=O)c2ccnc(C(F)(F)F)c2)cc1-c1cnc(S(C)(=O)=O)c(C#N)c1 [Example 46, N-(3-(5-cyano-6-(methylsulfonyl)pyridin-3-yl)-4-methylphenyl)-2-(trifluoromethyl) isonicotinamide] |
| 1.57 | 0.233 | CCCNc1ncc(-c2cc(NC(=O)c3ccnc(C(F)(F)F)c3)ccc2C)cc1C#N [Example 40, N-(3-(5-cyano-6-(propylamino)pyridin-3-yl)-4-methylphenyl)-2-(trifluoromethyl) isonicotinamide] |
| 16.4 | 1.08 | Cc1ccc(NC(=O)c2cccc(C(F)(F)F)c2)cc1-c1cc(C#N)c(N)nc1C [Example 41, N-(3-(6-amino-5-cyano-2-methylpyridin-3-yl)-4-methylphenyl)-3-(trifluoromethyl) benzamide] |
| 3.51 | 0.519 | Cc1ccc(NC(=O)c2cc(C(C)(F)F)ccn2)cc1-c1cnc(N2CC(C)(O)C2)c(C#N)c1 [Example 240, N-(3-(5-cyano-6-(3-hydroxy-3-methylazetidin-1-yl)pyridin-3-yl)-4-methylphenyl)-4-(1,1-difluoroethyl) picolinamide] |
| 3.14 | 0.66 | Cc1ncc(NC(=O)c2ccnc(C(F)(F)F)c2)cc1-c1cnc(-c2ccn(C)c(=O)c2)c(C#N)c1 [Example 102, N-(5′-cyano-1″,2-dimethyl-2″-oxo-1″,2″-dihydro-[3,3′:6′,4″- terpyridin]-5-yl)-2-(trifluoromethyl) isonicotinamide] |
| 30.7 | 4.96 | Cc1ncc(NC(=O)c2cc(C(C)(C)N)cc(C(F)(F)F)c2)cc1-c1cnc(N2CC(C)(O)C2)c(C#N)c1 [Example 247, 3-(2-aminopropan-2-yl)-N-(5′-cyano-6′-(3-hydroxy-3-methylazetidin-1-yl)-2-methyl-[3,3′-bipyridin]-5-yl)-5-(trifluoromethyl) benzamide] |
| 1.53 | 0.285 | Cc1ccc(NC(=O)c2cnnc(C(C)(C)F)c2)cc1-c1cnc(N2CC(C)(O)C2)c(C#N)c1 [Example 194, N-(3-(5-cyano-6-(3-hydroxy-3-methylazetidin-1-yl)pyridin-3-yl)-4-methylphenyl)-6-(2-fluoropropan-2-yl)pyridazine-4-carboxamide] |
| 94.2 | 8 | Cc1cc(CC(=O)Nc2cnc(C)c(-c3cnc(N(C)C)c(C#N)c3)c2)on1 [Example 268, N-(5′-cyano-6′-(dimethylamino)-2-methyl-[3,3′-bipyridin]-5-yl)-2-(3-methylisoxazol-5-yl)acetamide] |
| 0.566 | 0.0734 | Cc1ccc(NC(=O)c2cccc(C(F)(F)F)c2)cc1-c1cnc(N(C)C)c(C#N)c1 [Example 15, N-(3-(5-cyano-6-(dimethylamino)pyridin-3-yl)-4-methylphenyl)-3-(trifluoromethyl) benzamide] |
| 9.82 | 2.55 | Cc1ncc(NC(=O)c2ccnc(C(C)(C)C#N)c2)cc1-c1cnc(NC(C)C)c(C#N)c1 [Example 28, N-(5′-cyano-6′-(isopropylamino)-2-methyl-[3,3′-bipyridin]-5-yl)-2-(2-cyanopropan-2-yl)isonicotinamide] |
| 56.2 | 5.13 | Cc1ncc(NC(=O)c2cccc(C(F)(F)F)n2)cc1-c1cnc(C2CCOCC2)c(C#N)c1 [Example 141, N-(5′-cyano-2-methyl-6′-(tetrahydro-2H-pyran-4-yl)-[3,3′-bipyridin]-5-yl)-6-(trifluoromethyl) picolinamide] |
